{
  "source": "patent US8133471B2",
  "about": "“CLK-peptide and SLK-peptide” (New York University, priority 2003, dated 2012)",
  "key": {"[1]": {"system": "denatured collagen type-IV", "assay": "99Tc-CLK-Peptide competitive binding to denatured collagen type-IV (gamma counter)", "conditions": "99Tc-CLK-peptide 10 μg/ml, 50 μl/well; collagen 10 μg/ml", "experimental": "FIG. 18 Inhibition of 99Tc-CLK-Peptide binding by unlabeled HUI77.\nFIG. 19 Inhibition of Binding of Labeled CLK-Peptide to Denatured Collagen Type-IV by mAb HUI77. Denatured collagen type-IV (10 μg/ml) was coated on microtiter wells and binding of 99Tc-labeled CLK-Peptide in the presence or absence of unlabeled CLK-peptide or mAb HUI77 was measured. As shown in the figure, 99Tc-CLK-peptide (10 μg/ml, 50 μl/well) specifically binds to denatured collagen type-IV (first bar from left). […] 99Tc-CLK-peptide was also allowed to bind to denatured collagen type-IV in the presence or absence of Mab HUI77 (fourth and fifth bars from left). […] These findings provide further evidence that the CLK-peptide binds to a similar if not identical epitope recognized by Mab HUI77.\n^99Tc-CLK-Peptide was used in competitive binding studies to further characterize the CLK epitope. To evaluate the ability of HUI77 to compete with binding to denatured type-IV collagen, type-IV collagen was denatured at 60° C. for 15 minutes at a concentration of […] in PBS. […] The supernatant, washes and collagen-coated wells were counted in a gamma counter (1 minute counts in duplicate).\nIn addition, denatured collagen type-IV (10 μg/ml) was coated on microtiter wells and binding of ^99Tc-labeled CLK-Peptide in the presence or absence of either unlabeled CLK-peptide or mAb HUI77 was measured using a gamma counter. […]"}, "[2]": {"system": "Glioblastoma (GL261) cells", "assay": "GL261 glioblastoma cell adhesion to collagen type-IV", "assay_type": "cell-based, murine", "conditions": "50 μg/ml", "experimental": "FIG. 21 Effects of CLK-Peptide on Glioblastoma Cell Adhesion to Denatured Collagen Type-IV.\nTo assess the functional significance of the HUI77/CLK cryptic epitope, cell adhesion assays using a glioblastoma cell line were performed. Microtiter plates were coated with denatured collagen type-IV (10 μg/ml). Glioblastoma (GL261) cells were resuspended in adhesion buffer in the presence or absence of CLK-peptide or a non-specific control (CTW) peptide (50 μg/ml) and the […] were incubated in the coated wells for 30 minutes. Non-attached cells were removed by washing, and attached cells quantified by staining with crystal violet."}, "[3]": {"system": "Human melanoma cells (M21)", "assay": "M21 cell adhesion to denatured or native collagen type-IV or fibronectin (Example 9)", "assay_type": "cell-based", "conditions": "0-100 μg/ml", "experimental": "Non-tissue culture treated 48-well plates were coated with denatured collagen type-IV at 10 μg/ml. […] Cell adhesion was quantified by measuring the O.D. of eluted dye at 600 nm. Data bars represent the mean O.D.±standard deviation from triplicate wells. Assays were completed 2 to 3 times with similar results.\nNon-tissue culture treated 48-well plates were coated with native collagen type-IV or fibronectin at 10 μg/ml. Human melanoma cells (M21) were allowed to attach to the coated wells in the presence or absence of CLK-Peptide or control peptide CTW at 0-100 μg/ml. Cell adhesion was quantified by measuring the O.D. of eluted dye at 600 nm. Data bars represent the mean O.D.±standard deviation from triplicate wells. Assays were completed 2 to 3 times with similar results. A. Adhesion to native collagen type-IV. B. Adhesion to Fibronectin.\nAdhesion assays were performed to study the effects of CLK-peptide on tumor cell adhesion in vitro. Microtiter wells were coated with either native collagen type-IV or the control ECM protein fibronectin. Malignant melanoma cells (M21) were allowed to bind to the coated substrates in the presence or absence of CLK peptide or a control peptide, CTW."}, "[4]": {"system": "Human endothelial cells (HUVECs)", "assay": "Endothelial cord formation in MATRIGEL", "assay_type": "cell-based", "conditions": "0 to 100 μg/ml, 24 hours", "experimental": "FIG. 6 Effects of CLK Peptide on HUVEC Cord Formation in MATRIGEL®. MATRIGEL was added to 96-well plates and allowed to form three-dimensional gels. […] Representative photos were taken at a magnification of 100×. A. Untreated control. B. CLK 25 μg/ml. C. CLK 50 μg/ml. D. CLK 100 μg/ml. E. Control Peptide 100 μg/ml.\nThe role that the CLK cryptic collagen epitope plays in regulating endothelial cell morphogenesis and cord formation, processes important in angiogenesis, were investigated. MATRIGEL was diluted in M199 medium and 300 μl were added to the wells of a 48-well culture plate and allowed to polymerize. […] Endothelial morphogenesis and cord formation was monitored with an inverted microscope fitted with a 35 mm camera to document cord formation."}, "Human melanoma cells M21": {"system": "Human melanoma cells M21", "assay": "M21 melanoma cell adhesion to denatured collagen type-IV (Example 2)", "assay_type": "cell-based", "conditions": "M21 cells on denatured collagen type-IV; peptide 250 μg/ml", "text": "FIG. 1 is a chart which illustrates M21 human melanoma cell adhesion to untreated denatured type-IV collagen (NT), CLK-peptide treated denatured collagen type-IV, SLK-peptide treated denatured collagen type-IV, and SDR-peptide treated denatured collagen type-IV.\nSLK peptides bind to functional epitopes within denatured collagen type-IV that regulate cellular adhesion. Non-tissue culture treated 48-well plates were coated with denatured collagen type-IV. Human melanoma cells M21 (Scripps Research Institute, La Jolla, Calif.) were allowed to attach to the coated wells in the presence or absence of the synthetic peptides CLK, SLK, and SDR, each peptide was at a concentration of 250 μg/ml. SDR peptide is a commercially available peptide that was used as a control (QED Bioscience, Inc., San Diego, Calif.).\nHuman denatured collagen type-IV (25 μg/ml) was immobilized on 48-well nontissue culture treated plates. Wells were washed and incubated with 1% BSA (bovine serum albumin) in PBS (phosphate-buffered saline) for one hour at 37° C. Subconfluent […] were harvested, washed, and resuspended in adhesion buffer containing RPMI-1640 medium, 1 mM MgCl2, 0.2 mM MnCl2, and 0.5% BSA. […] Cell adhesion was quantified by measuring the optical density of eluted crystal violet at a wavelength of 600 nm."}},
  "note": "No end group written: not given here.",
  "data": [
    {"substance": "99Tc-CLK-peptide: 99Tc-labeled CLK-Peptide used in competitive binding studies (CLKQNGGNFSLG; also: 99Tc-labeled, site not given here)", "values": [
      {"measurement": "binding to denatured collagen type-IV", "setting": "[1]", "value": "specifically bound"}
    ]},
    {"substance": "CTWPRHHTTDALL (control peptide) [reference compound]", "values": [
      {"measurement": "effect on glioblastoma cell adhesion to denatured collagen type-IV", "setting": "[2]", "value": "no effect"},
      {"measurement": "effect on M21 cell adhesion to fibronectin", "setting": "[3]", "value": "Neither CLK-Peptide nor the control peptide had any effect"},
      {"measurement": "effect on M21 cell adhesion to native triple helical collagen type-IV", "setting": "[3]", "value": "Neither CLK-Peptide nor the control peptide had any effect"},
      {"measurement": "effect on M21 cell attachment to denatured collagen type-IV", "setting": "[3]", "value": "no effect"},
      {"measurement": "effect on endothelial cord formation", "setting": "[4]", "value": "little if any effect"}
    ]},
    {"substance": "NH2-S-L-K-Q-N-G-G-N-F-S-L-C-COOH (H-SLKQNGGNFSLC-OH) [SLK-peptide]", "values": [
      {"measurement": "blockade of melanoma cell adhesion", "setting": "Human melanoma cells M21", "value": "about 50%"}
    ]}
  ]
}
